Measured values: patent US7632829B2, “Diazepan derivatives” (Hoffmann-La Roche Inc., priority 2006, dated 2009)

target: T1, human chemokine receptor 2 isoform B (Homo sapiens, UniProt P41597); assay: Calcium mobilization assay (FLIPR, CHOK1-CCR2B-A5 cells, 20 nM MCP-1); format: cell-based; settings: Ca mobilisation assay, CCR2, antagonist activity vs 20 nM MCP-1
T1 construct: host or cells: CHOK1-CCR2B-A5 (CHO-K1)
T1 sequence (P41597 1-360 isoform P41597-2): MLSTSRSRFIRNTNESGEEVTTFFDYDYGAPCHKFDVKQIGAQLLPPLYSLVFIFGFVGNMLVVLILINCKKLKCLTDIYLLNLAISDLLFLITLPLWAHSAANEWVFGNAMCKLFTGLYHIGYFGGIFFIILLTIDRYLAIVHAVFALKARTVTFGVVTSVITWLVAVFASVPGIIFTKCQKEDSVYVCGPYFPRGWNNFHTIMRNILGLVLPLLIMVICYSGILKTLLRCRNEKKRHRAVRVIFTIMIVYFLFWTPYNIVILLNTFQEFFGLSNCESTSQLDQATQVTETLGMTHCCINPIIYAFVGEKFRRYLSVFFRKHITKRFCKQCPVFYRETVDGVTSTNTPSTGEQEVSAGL
In short: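 FLIPR Fluo-4 calcium readout in CHO-K1 cells stably overexpressing human CCR2B; compounds first monitored 80 s for agonist activity, then after 20-30 min at 30 °C challenged with 20 nM MCP-1. Response is max minus basal fluorescence; antagonist value is concentration giving 50% inhibition of specific calcium increase.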

In order of rising IC50:
1. O=C(/C=C/c1ccc(Cl)c(Cl)c1)N1CCC(=O)N(C[C@@H](O)CN2CCC3(CC3)C(O)C2)CC1 (stereo partly drawn) [Example 327, 1-[(E)-3-(3,4-Dichloro-phenyl)-acryloyl]-4-[(S)-2-hydroxy-3-((−)-4-hydroxy-6-aza-spiro[2.5]oct-6-yl)-propyl]-[1,4]diazepan-5-one]  0.002 µM
2. O=C(/C=C/c1ccc(Cl)c(Cl)c1)N1CCC(=O)N(C[C@@H](O)CN2CCC3(CC3)C(O)C2)CC1 (stereo partly drawn) [Example 332, 1-[(E)-3-(3,4-Dichloro-phenyl)-acryloyl]-4-[(S)-2-hydroxy-3-((+)-4-hydroxy-6-aza-spiro[2.5]oct-6-yl)-propyl]-[1,4]diazepan-5-one]  0.002 µM
3. O=C(/C=C/c1ccc(F)c(Cl)c1)N1CCC(=O)N(C[C@@H](O)CN2CCC3(CC3)C(O)C2)CC1 (stereo partly drawn) [Example 336, 1-[(E)-3-(3-Chloro-4-fluoro-phenyl)-acryloyl]-4-[(S)-2-hydroxy-3-((−)-4-hydroxy-6-aza-spiro[2.5]oct-6-yl)-propyl]-[1,4]diazepan-5-one]  0.003 µM
4. O=C(/C=C/c1ccc(F)c(Cl)c1)N1CCC(=O)N(C[C@@H](O)CN2CCC3(CC3)C(O)C2)CC1 (stereo partly drawn) [Example 342, 1-[(E)-3-(3-Chloro-4-fluoro-phenyl)-acryloyl]-4-[(S)-2-hydroxy-3-((+)-4-hydroxy-6-aza-spiro[2.5]oct-6-yl)-propyl]-[1,4]diazepan-5-one]  0.003 µM
5. O=C(/C=C/c1ccc(Cl)c(Cl)c1)N1CCC(=O)N(CCCN2CCC3(CC3)C(O)C2)CC1 (centres unmarked) [Example 262]  0.004 µM
6. CC1(C)CCN(C[C@H](O)CN2CCN(C(=O)/C=C/c3ccc(Cl)c(Cl)c3)CCC2=O)CC1O (stereo partly drawn) [Example 334, 1-[(E)-3-(3,4-Dichloro-phenyl)-acryloyl]-4-[(S)-2-hydroxy-3-(3-hydroxy-4,4-dimethyl-piperidin-1-yl)-propyl]-[1,4]diazepan-5-one]  0.004 µM
7. O=C(/C=C/c1ccc(Cl)c(Cl)c1)N1CCC(=O)N(CCCN2CCC3(CC3)C(O)C2)CC1 (centres unmarked) [Example 261]  0.009 µM
8. CC1(C)CCN(C[C@H](O)CN2CCN(C(=O)/C=C/c3ccc(F)c(Cl)c3)CCC2=O)CC1O (stereo partly drawn) [Example 343, 1-[(E)-3-(3-Chloro-4-fluoro-phenyl)-acryloyl]-4-[(S)-2-hydroxy-3-(3-hydroxy-4,4-dimethyl-piperidin-1-yl)-propyl]-[1,4]diazepan-5-one]  0.011 µM
9. O=C(/C=C/c1ccc(Cl)c(F)c1)N1CCC(=O)N(CCCCN2CCC3(CC3)C(O)C2)CC1 (stereo not drawn) [Example 416, 1-[(E)-3-(4-Chloro-3-fluoro-phenyl)-acryloyl]-4-[4-((-)-4-hydroxy-6-aza-spiro[2.5]oct-6-yl)-butyl]-[1,4]diazepan-5-one]  0.011 µM
10. O=C(/C=C/c1ccc(F)c(Cl)c1)N1CCC(=O)N(CCCN2CCC3(CC3)C(O)C2)CC1 (centres unmarked) [Example 192]  0.015 µM
11. COCC1CCCN(CCCCN2CCN(C(=O)/C=C/c3ccc(Cl)c(Cl)c3)CCC2=O)C1 (centres unmarked) [Example 423]  0.016 µM
12. CC1(CO)CCN(CC(O)CN2CCN(C(=O)C=Cc3ccc(F)c(Cl)c3)CCC2=O)CC1O [Example 340, 1-[(E)-3-(3-Chloro-4-fluoro-phenyl)-acryloyl]-4-[(S)-2-hydroxy-3-((cis)-3-hydroxy-4-hydroxymethyl-4-methyl-piperidin-1-yl)-propyl]-[1,4]diazepan-5-one]  0.019 µM
13. COC(=O)NC1CCN(CCCCN2CCN(C(=O)/C=C/c3ccc(Cl)c(Cl)c3)CCC2=O)CC1 [Example 441]  0.022 µM
14. O=C(/C=C/c1ccc(Cl)c(F)c1)N1CCC(=O)N(CCCCN2CCC3(CC3)C(O)C2)CC1 (centres unmarked) [Example 415]  0.027 µM
15. COCC1CCN(CCCCN2CCN(C(=O)/C=C/c3ccc(Cl)c(Cl)c3)CCC2=O)CC1 [Example 444, 1-[(E)-3-(3,4-Dichloro-phenyl)-acryloyl]-4-[4-(4-methoxymethyl-3-piperidin-1-yl)-butyl]-[1,4]diazepan-5-one]  0.032 µM
16. CC(=O)NC1CCN(CCCCN2CCN(C(=O)/C=C/c3ccc(Cl)c(Cl)c3)CCC2=O)CC1 [Example 453]  0.033 µM
17. O=C(/C=C/c1ccc(Cl)c(Cl)c1)N1CCC(=O)N(CCCCN2CCC(CO)CC2)CC1 [Example 422]  0.07 µM
18. COC(=O)N(C)C1CCN(CCCCN2CCN(C(=O)/C=C/c3ccc(Cl)c(Cl)c3)CCC2=O)CC1 [Example 442]  0.085 µM
19. COC(=O)NC1CCN(CCCCN2CCN(C(=O)/C=C/c3ccc(F)c(Cl)c3)CCC2=O)CC1 [Example 401]  0.092 µM
20. COCC1CCN(CCCCN2CCN(C(=O)/C=C/c3ccc(F)c(Cl)c3)CCC2=O)CC1 [Example 404]  0.095 µM
21. CC(C)N1CCN(CCCN2CCN(C(=O)/C=C/c3ccc(Cl)c(Cl)c3)CCC2=O)CC1 [Example 240]  0.105 µM
22. CC1(CO)CCN(CCCN2CCN(C(=O)/C=C/c3ccc(Cl)c(Cl)c3)CCC2=O)CC1 [Example 254]  0.108 µM
23. C[C@H]1CCN(CCCN2CCN(C(=O)/C=C/c3ccc(F)c(Cl)c3)CCC2=O)C[C@H]1O [Example 190, 1-[(E)-3-(3-Chloro-4-fluoro-phenyl)-acryloyl]-4-[3-((+, cis)-3-hydroxy-4-methyl-piperidin-1-yl)-propyl]-[1,4]diazepan-5-one]  0.118 µM
24. O=C(/C=C/c1ccc(Cl)c(Cl)c1)N1CCC(=O)N(CCCCN2CCC(O)CC2)CC1 [Example 424]  0.119 µM
25. O=C(/C=C/c1ccc(Cl)c(Cl)c1)N1CCC(=O)N(CCCN2CCN(C3CCCC3)CC2)CC1 [Example 242]  0.124 µM
26. O=C(/C=C/c1ccc(Cl)c(Cl)c1)N1CCC(=O)N(CCCN2CCC(CO)CC2)CC1 [Example 229]  0.154 µM
27. CC1(CO)CCN(CCCCN2CCN(C(=O)C=Cc3ccc(Cl)c(F)c3)CCC2=O)CC1O (centres unmarked) [Example 411]  0.199 µM
28. O=C(/C=C/c1ccc(F)c(Cl)c1)N1CCC(=O)N(CCCCN2CCCCC2)CC1 [Example 382]  0.246 µM
29. COCCN1CCN(CCCCN2CCN(C(=O)/C=C/c3ccc(Cl)c(Cl)c3)CCC2=O)CC1 [Example 439]  0.263 µM
30. COC(=O)N(C)C1CCN(CCCCN2CCN(C(=O)/C=C/c3ccc(F)c(Cl)c3)CCC2=O)CC1 [Example 402]  0.291 µM
31. O=C(/C=C/c1ccc(F)c(Cl)c1)N1CCC(=O)N(CCCCN2CCC(O)CC2)CC1 [Example 384]  0.334 µM
32. CC1(CO)CCN(CCCCN2CCN(C(=O)C=Cc3ccc(Cl)c(F)c3)CCC2=O)CC1O (centres unmarked) [Example 412]  0.342 µM
33. O=C(/C=C/c1ccc(Cl)c(Cl)c1)N1CCC(=O)N(CCCCN2CCN(C3CCCC3)CC2)CC1 [Example 438]  0.369 µM
34. CC(C)CN1CCN(CCCN2CCN(C(=O)/C=C/c3ccc(Cl)c(Cl)c3)CCC2=O)CC1 [Example 258]  0.375 µM
35. CC(C)CN1CCN(CCCCN2CCN(C(=O)/C=C/c3ccc(Cl)c(Cl)c3)CCC2=O)CC1 [Example 465]  0.376 µM
36. O=C(/C=C/c1ccc(F)c(Cl)c1)N1CCC(=O)N(CCCCN2CCC(CO)CC2)CC1 [Example 386]  0.38 µM
37. CC1C(O)CCCN1CCCCN1CCN(C(=O)C=Cc2ccc(F)c(Cl)c2)CCC1=O (centres unmarked) [Example 388]  0.381 µM
38. O=C(C=Cc1ccc(Cl)c(Cl)c1)N1CCC(=O)N(CCNC2CCCCC2O)CC1 (centres unmarked) [Example 357]  0.385 µM
39. O=C(/C=C/c1ccc(F)c(Cl)c1)N1CCC(=O)N(CCCN2CCC(CO)CC2)CC1 [Example 212]  0.437 µM
40. O=C1NCC2(CCN(CCCN3CCN(C(=O)/C=C/c4ccc(F)c(Cl)c4)CCC3=O)CC2)O1 [Example 195]  0.453 µM
41. O=C(/C=C/c1ccc(Cl)c(Cl)c1)N1CCC(=O)N(CCCCN2CCN(C3CC3)CC2)CC1 [Example 437]  0.463 µM
42. O=C1NC(=O)C2(CCN(CCCN3CCN(C(=O)/C=C/c4ccc(F)c(Cl)c4)CCC3=O)CC2)N1 [Example 194]  0.494 µM
43. COCC1CCN(CCCN2CCN(C(=O)/C=C/c3ccc(Cl)c(Cl)c3)CCC2=O)CC1 [Example 247]  0.613 µM
44. CCN(CCO)CCCCN1CCN(C(=O)/C=C/c2ccc(Cl)c(Cl)c2)CCC1=O [Example 461]  0.614 µM
45. O=C(/C=C/c1ccc(F)c(Cl)c1)N1CCC(=O)N(CCCN2CCC[C@@H](O)C2)CC1 [Example 193]  0.644 µM
46. O=C(/C=C/c1ccc(Cl)c(Cl)c1)N1CCC(=O)N(CC(O)CN2CCC(O)CC2)CC1 (centres unmarked) [Example 285]  0.644 µM
47. COC(=O)NC1CCN(CCCN2CCN(C(=O)/C=C/c3ccc(F)c(Cl)c3)CCC2=O)CC1 [Example 201]  0.656 µM
48. COC(=O)NC1CCN(CCCN2CCN(C(=O)/C=C/c3ccc(Cl)c(Cl)c3)CCC2=O)CC1 [Example 244]  0.66 µM
49. COCCN1CCN(CCCCN2CCN(C(=O)/C=C/c3ccc(F)c(Cl)c3)CCC2=O)CC1 [Example 399]  0.72 µM
50. O=C1CC2(CCN(CCCN3CCN(C(=O)/C=C/c4ccc(F)c(Cl)c4)CCC3=O)CC2)CN1 [Example 198]  0.739 µM
51. CC(C)N1CCN(CCCCN2CCN(C(=O)/C=C/c3ccc(Cl)c(Cl)c3)CCC2=O)CC1 [Example 436]  0.746 µM
52. O=C(/C=C/c1ccc(Cl)c(Cl)c1)N1CCC(=O)N(CCCN2CCN(C3CC3)CC2)CC1 [Example 241]  0.765 µM
53. CN(CCO)CCCCN1CCN(C(=O)/C=C/c2ccc(Cl)c(Cl)c2)CCC1=O [Example 460]  0.832 µM
54. O=C(/C=C/c1ccc(F)c(Cl)c1)N1CCC(=O)N(CCCN2CCC(O)CC2)CC1 [Example 196]  0.864 µM
55. O=C(/C=C/c1ccc(F)c(Cl)c1)N1CCC(=O)N(CCCCN2CCN(C3CC3)CC2)CC1 [Example 397]  0.944 µM
56. N#CC1CCN(CCCN2CCN(C(=O)/C=C/c3ccc(F)c(Cl)c3)CCC2=O)CC1 [Example 199]  1.34 µM
